The source of these data is ChEMBL document CHEMBL5291721, “A preclinical secondary pharmacology resource illuminates target-adverse drug reaction associations of marketed drugs” (Nat Commun, 2023).

Some targets named below: Vasopressin V1a receptor (Homo sapiens, UniProt P37288); Vasopressin V2 receptor (Homo sapiens, UniProt P30518); Melanocortin receptor 3 (Homo sapiens, UniProt P41968); Motilin receptor (Homo sapiens, UniProt O43193); D(3) dopamine receptor (Homo sapiens, UniProt P35462).
Another assay addresses T1, Adenosine receptor A3 (Homo sapiens, UniProt P0DMS8).
T1 sequence (P0DMS8 whole entry): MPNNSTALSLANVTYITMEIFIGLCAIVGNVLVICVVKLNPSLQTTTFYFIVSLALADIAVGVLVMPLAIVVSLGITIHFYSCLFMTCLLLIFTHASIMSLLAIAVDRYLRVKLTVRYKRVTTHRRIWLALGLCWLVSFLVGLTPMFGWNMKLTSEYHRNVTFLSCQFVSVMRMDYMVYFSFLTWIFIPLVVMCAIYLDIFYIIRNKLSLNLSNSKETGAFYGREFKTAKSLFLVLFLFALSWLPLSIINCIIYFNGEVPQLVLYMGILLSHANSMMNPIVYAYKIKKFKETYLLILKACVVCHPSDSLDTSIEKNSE

Assay [1] concerns the target T2, Alpha-2A adrenergic receptor (Homo sapiens, UniProt P08913).
T2 sequence (P08913 whole entry): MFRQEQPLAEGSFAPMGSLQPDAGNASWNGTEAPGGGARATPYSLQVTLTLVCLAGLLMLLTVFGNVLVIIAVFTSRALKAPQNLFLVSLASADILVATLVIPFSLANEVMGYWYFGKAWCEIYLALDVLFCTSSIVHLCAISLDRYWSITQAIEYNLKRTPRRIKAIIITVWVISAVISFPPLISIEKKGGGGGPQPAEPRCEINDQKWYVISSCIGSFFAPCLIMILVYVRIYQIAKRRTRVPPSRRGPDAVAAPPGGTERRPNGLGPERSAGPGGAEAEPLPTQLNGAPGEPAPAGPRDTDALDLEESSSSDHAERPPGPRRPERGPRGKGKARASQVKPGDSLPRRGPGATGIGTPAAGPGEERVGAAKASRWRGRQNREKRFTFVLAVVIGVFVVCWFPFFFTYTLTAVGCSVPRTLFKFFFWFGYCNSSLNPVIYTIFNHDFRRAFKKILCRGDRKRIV
The assay is classed as functional, cell-based.

Assay [2] has as its target T3, Alpha-2B adrenergic receptor (Homo sapiens, UniProt P18089).
T3 sequence (P18089 whole entry): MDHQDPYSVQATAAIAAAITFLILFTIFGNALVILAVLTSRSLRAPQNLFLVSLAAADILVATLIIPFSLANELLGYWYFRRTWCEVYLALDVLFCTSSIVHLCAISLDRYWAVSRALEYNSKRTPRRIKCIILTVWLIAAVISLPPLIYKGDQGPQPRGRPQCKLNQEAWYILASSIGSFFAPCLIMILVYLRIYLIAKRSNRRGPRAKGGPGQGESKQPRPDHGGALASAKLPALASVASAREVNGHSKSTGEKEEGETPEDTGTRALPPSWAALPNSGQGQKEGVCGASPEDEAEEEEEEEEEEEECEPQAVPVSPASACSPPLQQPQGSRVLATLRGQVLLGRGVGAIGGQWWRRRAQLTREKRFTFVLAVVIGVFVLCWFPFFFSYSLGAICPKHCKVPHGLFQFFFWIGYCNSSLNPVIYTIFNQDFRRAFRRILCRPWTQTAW

In assay [3] the target is T4, Alpha-2C adrenergic receptor (Homo sapiens, UniProt P18825).
T4 sequence (P18825 whole entry): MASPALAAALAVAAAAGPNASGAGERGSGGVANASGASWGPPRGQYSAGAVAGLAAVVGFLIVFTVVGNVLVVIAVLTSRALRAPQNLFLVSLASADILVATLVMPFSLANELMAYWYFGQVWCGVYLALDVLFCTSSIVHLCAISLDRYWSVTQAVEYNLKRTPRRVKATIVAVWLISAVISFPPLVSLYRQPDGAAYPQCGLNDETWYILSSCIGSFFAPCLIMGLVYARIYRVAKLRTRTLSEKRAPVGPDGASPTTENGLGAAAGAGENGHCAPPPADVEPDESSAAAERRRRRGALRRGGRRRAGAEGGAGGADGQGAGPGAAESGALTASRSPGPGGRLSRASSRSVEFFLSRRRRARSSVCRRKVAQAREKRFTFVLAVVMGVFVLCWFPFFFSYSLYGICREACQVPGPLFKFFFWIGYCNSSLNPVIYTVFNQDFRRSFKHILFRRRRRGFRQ
Type of assay: functional.

For assay [4], the target named is Muscarinic acetylcholine receptor M3 (Homo sapiens, UniProt P20309).
Chain of Muscarinic acetylcholine receptor M3 (P20309 whole entry): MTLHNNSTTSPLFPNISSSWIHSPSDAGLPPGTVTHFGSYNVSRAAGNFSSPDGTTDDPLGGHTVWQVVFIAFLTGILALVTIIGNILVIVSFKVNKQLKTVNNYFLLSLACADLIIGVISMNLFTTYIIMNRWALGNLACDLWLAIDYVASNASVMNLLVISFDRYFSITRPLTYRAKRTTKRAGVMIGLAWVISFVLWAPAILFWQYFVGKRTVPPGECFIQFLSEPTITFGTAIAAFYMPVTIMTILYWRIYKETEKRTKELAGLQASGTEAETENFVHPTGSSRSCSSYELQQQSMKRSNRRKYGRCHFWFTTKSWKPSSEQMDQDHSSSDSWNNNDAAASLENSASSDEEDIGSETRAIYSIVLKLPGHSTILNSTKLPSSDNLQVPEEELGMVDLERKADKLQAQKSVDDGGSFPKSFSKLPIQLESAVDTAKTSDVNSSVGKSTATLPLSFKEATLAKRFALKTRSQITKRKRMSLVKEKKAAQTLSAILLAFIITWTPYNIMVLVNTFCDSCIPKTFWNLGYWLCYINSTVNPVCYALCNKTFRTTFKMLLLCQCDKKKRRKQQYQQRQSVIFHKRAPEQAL
The target of another assay is Cannabinoid receptor 1 (Homo sapiens, UniProt P21554). Type of assay: functional, cell-based.
The next assay concerns the target D(1A) dopamine receptor (Homo sapiens, UniProt P21728). Type of assay: functional, cell-based.
Assay [5] concerns the target Voltage-gated inwardly rectifying potassium channel KCNH2 (Homo sapiens, UniProt Q12809). Type of assay: functional. The following applies: read-out: AC50.
For assay [6], the target named is T5, Neuropeptide Y receptor type 1 (Homo sapiens, UniProt P25929).
T5 sequence (P25929 whole entry): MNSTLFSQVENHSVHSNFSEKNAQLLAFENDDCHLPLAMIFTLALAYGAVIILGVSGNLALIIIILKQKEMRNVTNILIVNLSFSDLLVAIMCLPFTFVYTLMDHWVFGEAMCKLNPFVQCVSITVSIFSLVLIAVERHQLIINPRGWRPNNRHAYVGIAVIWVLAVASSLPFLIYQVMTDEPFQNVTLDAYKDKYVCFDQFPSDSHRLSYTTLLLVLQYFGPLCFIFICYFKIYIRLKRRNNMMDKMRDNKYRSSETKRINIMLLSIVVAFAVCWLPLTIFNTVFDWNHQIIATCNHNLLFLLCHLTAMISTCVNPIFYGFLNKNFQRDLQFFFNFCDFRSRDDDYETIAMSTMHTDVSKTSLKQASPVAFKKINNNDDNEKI

The target in assay [7] is 3',5'-cyclic-AMP phosphodiesterase 4D (Homo sapiens, UniProt Q08499). Type of assay: functional.
Chain of 3',5'-cyclic-AMP phosphodiesterase 4D (Q08499 whole entry): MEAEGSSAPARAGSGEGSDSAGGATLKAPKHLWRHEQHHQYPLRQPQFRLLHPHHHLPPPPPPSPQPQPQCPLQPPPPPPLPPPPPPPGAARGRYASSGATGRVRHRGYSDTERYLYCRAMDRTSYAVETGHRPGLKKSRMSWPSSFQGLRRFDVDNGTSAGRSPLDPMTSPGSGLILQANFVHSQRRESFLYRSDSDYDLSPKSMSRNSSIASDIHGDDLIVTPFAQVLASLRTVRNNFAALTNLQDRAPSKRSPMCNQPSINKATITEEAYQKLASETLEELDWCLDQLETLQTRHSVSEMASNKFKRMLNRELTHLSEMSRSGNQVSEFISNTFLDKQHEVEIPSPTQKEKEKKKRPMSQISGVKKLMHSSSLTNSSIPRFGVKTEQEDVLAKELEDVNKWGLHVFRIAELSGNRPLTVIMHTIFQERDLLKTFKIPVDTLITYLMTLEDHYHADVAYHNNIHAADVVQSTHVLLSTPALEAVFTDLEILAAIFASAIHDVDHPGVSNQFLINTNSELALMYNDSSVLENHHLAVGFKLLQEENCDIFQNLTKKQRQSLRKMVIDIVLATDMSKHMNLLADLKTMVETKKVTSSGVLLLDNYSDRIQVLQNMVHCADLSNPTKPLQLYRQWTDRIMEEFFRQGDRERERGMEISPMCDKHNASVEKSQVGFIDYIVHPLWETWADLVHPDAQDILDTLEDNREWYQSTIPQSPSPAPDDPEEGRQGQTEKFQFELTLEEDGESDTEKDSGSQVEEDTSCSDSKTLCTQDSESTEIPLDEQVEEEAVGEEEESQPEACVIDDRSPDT
Assay [8] deals with Sodium-dependent dopamine transporter (Homo sapiens, UniProt Q01959).
Chain of Sodium-dependent dopamine transporter (Q01959 whole entry): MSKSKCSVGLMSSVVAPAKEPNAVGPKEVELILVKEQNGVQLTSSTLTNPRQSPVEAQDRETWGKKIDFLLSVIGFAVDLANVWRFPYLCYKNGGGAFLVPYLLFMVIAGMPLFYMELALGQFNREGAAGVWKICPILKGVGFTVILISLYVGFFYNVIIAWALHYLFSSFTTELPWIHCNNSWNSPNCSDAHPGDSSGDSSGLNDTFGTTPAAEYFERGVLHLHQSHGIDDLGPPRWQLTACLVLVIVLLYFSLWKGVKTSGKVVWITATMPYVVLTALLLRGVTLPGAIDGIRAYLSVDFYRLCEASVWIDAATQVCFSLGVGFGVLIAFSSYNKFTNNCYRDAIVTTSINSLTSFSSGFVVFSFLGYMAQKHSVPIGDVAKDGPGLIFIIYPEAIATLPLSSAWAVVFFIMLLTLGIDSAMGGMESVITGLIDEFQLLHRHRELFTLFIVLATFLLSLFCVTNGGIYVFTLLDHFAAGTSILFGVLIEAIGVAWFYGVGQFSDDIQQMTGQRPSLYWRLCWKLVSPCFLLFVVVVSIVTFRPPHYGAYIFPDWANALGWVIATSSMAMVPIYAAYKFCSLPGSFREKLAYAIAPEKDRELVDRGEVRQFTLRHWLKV
Assay [9] concerns the target Sodium-dependent serotonin transporter (Homo sapiens, UniProt P31645).
Assay [10] deals with cGMP-inhibited 3',5'-cyclic phosphodiesterase 3A (Homo sapiens, UniProt Q14432). Type of assay: functional.
Chain of cGMP-inhibited 3',5'-cyclic phosphodiesterase 3A (Q14432 whole entry): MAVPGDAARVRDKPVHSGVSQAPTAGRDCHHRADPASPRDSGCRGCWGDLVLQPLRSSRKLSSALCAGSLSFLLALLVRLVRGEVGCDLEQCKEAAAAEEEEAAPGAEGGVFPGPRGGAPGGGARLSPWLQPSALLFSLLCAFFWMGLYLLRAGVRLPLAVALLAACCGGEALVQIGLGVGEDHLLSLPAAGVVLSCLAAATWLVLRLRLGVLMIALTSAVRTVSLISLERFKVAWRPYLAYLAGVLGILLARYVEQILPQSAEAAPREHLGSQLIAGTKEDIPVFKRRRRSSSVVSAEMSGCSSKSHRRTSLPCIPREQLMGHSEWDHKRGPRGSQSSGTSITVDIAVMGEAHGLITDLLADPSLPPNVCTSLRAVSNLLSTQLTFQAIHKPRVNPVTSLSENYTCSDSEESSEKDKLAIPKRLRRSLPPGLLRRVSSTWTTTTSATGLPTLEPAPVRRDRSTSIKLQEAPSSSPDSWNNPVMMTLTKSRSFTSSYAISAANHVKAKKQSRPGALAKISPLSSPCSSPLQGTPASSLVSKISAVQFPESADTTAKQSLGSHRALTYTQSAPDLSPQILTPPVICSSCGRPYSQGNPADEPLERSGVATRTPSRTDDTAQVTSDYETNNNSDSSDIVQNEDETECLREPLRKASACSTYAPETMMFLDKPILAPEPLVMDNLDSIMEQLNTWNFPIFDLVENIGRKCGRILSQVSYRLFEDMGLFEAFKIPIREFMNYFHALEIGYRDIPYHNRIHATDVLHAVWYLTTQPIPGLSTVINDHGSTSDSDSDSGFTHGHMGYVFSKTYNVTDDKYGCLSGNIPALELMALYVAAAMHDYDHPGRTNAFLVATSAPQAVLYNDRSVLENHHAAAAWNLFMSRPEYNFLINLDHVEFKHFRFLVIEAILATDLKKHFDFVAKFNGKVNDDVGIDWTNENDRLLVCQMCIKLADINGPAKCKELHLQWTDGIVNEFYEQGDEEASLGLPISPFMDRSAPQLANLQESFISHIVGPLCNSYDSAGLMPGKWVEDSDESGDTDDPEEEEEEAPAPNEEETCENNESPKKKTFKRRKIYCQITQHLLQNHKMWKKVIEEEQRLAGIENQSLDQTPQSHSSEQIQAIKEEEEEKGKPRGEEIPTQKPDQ
Note: assay procedure not described here.

Chain of D(3) dopamine receptor (P35462 whole entry): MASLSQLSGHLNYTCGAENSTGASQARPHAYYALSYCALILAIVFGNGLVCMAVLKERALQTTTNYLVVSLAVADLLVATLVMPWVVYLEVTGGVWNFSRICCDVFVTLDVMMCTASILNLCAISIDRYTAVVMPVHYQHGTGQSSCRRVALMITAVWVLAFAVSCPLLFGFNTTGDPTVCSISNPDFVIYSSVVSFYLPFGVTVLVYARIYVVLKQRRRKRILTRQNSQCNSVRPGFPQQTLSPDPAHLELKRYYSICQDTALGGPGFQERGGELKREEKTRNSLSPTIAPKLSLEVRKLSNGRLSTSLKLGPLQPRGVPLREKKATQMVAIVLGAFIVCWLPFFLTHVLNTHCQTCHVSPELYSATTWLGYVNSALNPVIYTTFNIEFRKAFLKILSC
Chain of Melanocortin receptor 3 (P41968 whole entry): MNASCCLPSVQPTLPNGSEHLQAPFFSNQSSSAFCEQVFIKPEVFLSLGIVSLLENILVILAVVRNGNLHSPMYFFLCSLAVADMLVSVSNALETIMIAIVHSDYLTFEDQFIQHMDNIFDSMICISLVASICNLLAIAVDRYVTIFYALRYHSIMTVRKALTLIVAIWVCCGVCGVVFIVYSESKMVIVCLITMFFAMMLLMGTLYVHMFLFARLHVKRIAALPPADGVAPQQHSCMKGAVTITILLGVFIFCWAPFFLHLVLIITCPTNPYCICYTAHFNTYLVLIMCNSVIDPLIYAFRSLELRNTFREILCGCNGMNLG
Chain of Motilin receptor (O43193 whole entry): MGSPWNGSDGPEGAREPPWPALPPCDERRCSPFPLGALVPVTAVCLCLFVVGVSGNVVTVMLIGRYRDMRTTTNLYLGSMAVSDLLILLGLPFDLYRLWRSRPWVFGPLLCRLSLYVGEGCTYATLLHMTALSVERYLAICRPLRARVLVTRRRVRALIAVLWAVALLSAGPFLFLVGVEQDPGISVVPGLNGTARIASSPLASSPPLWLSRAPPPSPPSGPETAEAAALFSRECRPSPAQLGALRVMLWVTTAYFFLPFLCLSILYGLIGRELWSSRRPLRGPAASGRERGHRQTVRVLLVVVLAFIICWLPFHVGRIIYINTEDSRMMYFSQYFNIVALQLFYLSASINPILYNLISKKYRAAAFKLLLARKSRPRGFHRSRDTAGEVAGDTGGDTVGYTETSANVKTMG
Chain of Sodium-dependent serotonin transporter (P31645 whole entry): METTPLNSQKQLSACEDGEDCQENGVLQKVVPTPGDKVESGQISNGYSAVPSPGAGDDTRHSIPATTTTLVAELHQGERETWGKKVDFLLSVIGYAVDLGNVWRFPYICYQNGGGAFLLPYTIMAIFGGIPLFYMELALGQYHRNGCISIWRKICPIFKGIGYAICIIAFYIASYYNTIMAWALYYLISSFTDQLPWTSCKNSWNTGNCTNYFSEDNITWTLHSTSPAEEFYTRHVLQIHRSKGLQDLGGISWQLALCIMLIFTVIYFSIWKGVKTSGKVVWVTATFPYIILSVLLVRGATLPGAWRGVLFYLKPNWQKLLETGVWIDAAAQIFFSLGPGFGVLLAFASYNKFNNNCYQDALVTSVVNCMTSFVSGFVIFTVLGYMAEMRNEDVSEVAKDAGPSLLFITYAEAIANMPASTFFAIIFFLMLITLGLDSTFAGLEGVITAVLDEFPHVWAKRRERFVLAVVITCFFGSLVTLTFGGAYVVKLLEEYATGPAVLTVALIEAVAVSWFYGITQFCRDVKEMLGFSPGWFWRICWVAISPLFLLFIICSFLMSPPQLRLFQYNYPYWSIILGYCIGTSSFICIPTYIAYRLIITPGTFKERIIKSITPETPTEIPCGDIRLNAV

In the case of `COc1ccc(-c2ccc3cc(C(=O)O)ccc3c2)cc1C12CC3CC(CC(C3)C1)C2`, the concentration at half-maximal activity (AC50) (at Adenosine receptor A3; in assay [1]; in [2]; in [3]; on Vasopressin V1a receptor; at Vasopressin V2 receptor) was > 30 µM throughout. Moreover, the AC50 (in assay [4]; at Cannabinoid receptor 1; at D(1A) dopamine receptor; in [5]; at Melanocortin receptor 3; at Motilin receptor) was > 30 µM in each case. Further, the AC50 (in assay [6]; in assay [7]; in assay [8]; in assay [9]; in assay [10]; on D(3) dopamine receptor) was > 30 µM throughout.

In the case of `CCOC(=O)[C@H](CCc1ccccc1)N[C@@H](C)C(=O)N1C(=O)N(C)C[C@H]1C(=O)O`, the half-maximal activity concentration (AC50) (at Adenosine receptor A3; in [1]; in assay [2]; in assay [3]; at Vasopressin V1a receptor; at Vasopressin V2 receptor) was > 30 µM in each case. The AC50 (in assay [4]; on Cannabinoid receptor 1; on D(1A) dopamine receptor; in assay [5]; on Melanocortin receptor 3; on Motilin receptor) was > 30 µM throughout. Moreover, the AC50 (in assay [6]; in [7]; in assay [8]; in assay [9]; in assay [10]; at D(3) dopamine receptor) was > 30 µM each time.

Consider `O=C(O)CCCCCCNC1c2ccccc2CCc2ccccc21` [AMINEPTINE], for which the concentration at half-maximal activity (AC50) (at Adenosine receptor A3; in assay [1]; in assay [2]; in assay [3]; at Vasopressin V1a receptor; on Vasopressin V2 receptor) was > 30 µM each time. The half-maximal activity concentration (AC50) (in [4]; at Cannabinoid receptor 1; at D(1A) dopamine receptor; in assay [5]; on Melanocortin receptor 3; on Motilin receptor) was > 30 µM throughout. For the same compound, the AC50 (as a rule, the concentration at which the activity in the assay is half-maximal) in assay [6] is > 30 µM; in assay [7], > 30 µM; in assay [8], 1.5 µM; in [9] it was > 30 µM; in assay [10] it was > 30 µM; on D(3) dopamine receptor, > 30 µM.

For the compound `NCC(=O)CCC(=O)O` [AMINOLEVULINIC ACID], the AC50 (at Adenosine receptor A3; in assay [1]; in [2]; in [3]; at Vasopressin V1a receptor; on Vasopressin V2 receptor) was > 30 µM throughout. For the same compound, the concentration at half-maximal activity (AC50) (in assay [4]; on Cannabinoid receptor 1; at D(1A) dopamine receptor; in assay [5]; at Melanocortin receptor 3; on Motilin receptor) was > 30 µM each time. In addition, the AC50 (in [6]; in assay [7]; in assay [8]; in assay [9]; in assay [10]; at D(3) dopamine receptor) was > 30 µM in each case.

Turning to `COc1ccccc1OCCNCC(O)c1ccc(C)c(S(N)(=O)=O)c1` (stereo unspecified) [AMOSULALOL], the AC50 on Adenosine receptor A3 is > 30 µM; in assay [1], 9.1 µM; in assay [2], 6.9 µM; in [3], 2.3 µM; at Vasopressin V1a receptor, > 30 µM; at Vasopressin V2 receptor, > 30 µM. Further, the AC50 was > 30 µM in [4]; > 30 µM at Cannabinoid receptor 1; > 30 µM at D(1A) dopamine receptor; 15 µM in [5]; > 30 µM at Melanocortin receptor 3; > 30 µM at Motilin receptor. In addition, the AC50 is > 30 µM in assay [6]; 6.7 µM in assay [7]; > 30 µM in [8]; 29 µM in assay [9]; > 10 µM in assay [10]; 0.12 µM on D(3) dopamine receptor.

Regarding `COC(=O)C1=C(C)NC(C)=C(C(=O)OC2CCCN(Cc3ccccc3)C2)C1c1cccc([N+](=O)[O-])c1` (stereo unspecified) [BENIDIPINE], the concentration at half-maximal activity (AC50) was 3.5 µM on Adenosine receptor A3; > 30 µM in [1]; > 30 µM in [2]; 27 µM in assay [3]; > 30 µM at Vasopressin V1a receptor; > 30 µM on Vasopressin V2 receptor. The concentration at half-maximal activity (AC50) in assay [4] is > 30 µM; on Cannabinoid receptor 1, 16 µM; at D(1A) dopamine receptor it was > 30 µM; in [5], 2.01 µM; at Melanocortin receptor 3, > 30 µM; at Motilin receptor it was 3.5 µM. Moreover, the AC50 in assay [6] is > 30 µM; in assay [7], 7.1 µM; in assay [8] it was 12 µM; in assay [9] it was > 30 µM; in [10], 4.2 µM; at D(3) dopamine receptor, 16 µM.

Turning to `CC(C[N+](C)(C)C)OC(N)=O` (stereo unspecified) [BETHANECHOL], the half-maximal activity concentration (AC50) (at Adenosine receptor A3; in assay [1]; in assay [2]; in [3]; at Vasopressin V1a receptor; at Vasopressin V2 receptor) was > 10 µM each time. In addition, the concentration at half-maximal activity (AC50) in assay [4] is > 30 µM; at Cannabinoid receptor 1, > 30 µM; at D(1A) dopamine receptor, > 10 µM; in assay [5], > 30 µM; at Melanocortin receptor 3, > 10 µM; at Motilin receptor, > 10 µM. The concentration at half-maximal activity (AC50) was > 10 µM in assay [6]; > 30 µM in [7]; > 10 µM in assay [8]; > 10 µM in assay [9]; > 30 µM in assay [10]; > 30 µM on D(3) dopamine receptor.
